Results from publication PMC7280082 (Acta Pharmaceutica Sinica. B, 2019).

Experiments:
[1] = system: WT HIV-1 (IIIB); experiment: microbe, parasite or virus in culture; format: cell-based; conditions: for EC50: Human immunodeficiency virus 1, IIIB, MT4, read-out: EC50 IIIB; for SI IIIB: ratio of CC50/EC50
[2] = system: HIV-2 strain (ROD); experiment: Anti-HIV-2; format: cell-based; conditions: for EC50: Human immunodeficiency virus 2, MT4, read-out: EC50 ROD; for SI ROD: ratio of CC50/EC50
[3] = system: HIV-1 L100I mutant strain; experiment: microbe, parasite or virus in culture; format: cell-based; conditions: for SI L100I: CC50/EC50; for EC50: Human immunodeficiency virus 1, MT4, read-out: EC50 L100I; for RF L100I: ratio of EC50 (resistant viral strain)/EC50 (wild-type viral strain)
[4] = system: HIV-1 K103N mutant strain; experiment: microbe, parasite or virus in culture; format: cell-based; conditions: for SI K103N: CC50/EC50; for EC50: Human immunodeficiency virus 1, MT4, read-out: EC50 K103N; for RF K103N: ratio of EC50 (resistant viral strain)/EC50 (wild-type viral strain)
[5] = system: HIV-1 Y181C mutant strain; experiment: microbe, parasite or virus in culture; format: cell-based; conditions: for SI Y181C: CC50/EC50; for EC50: Human immunodeficiency virus 1, MT4, read-out: EC50 Y181C; for RF Y181C: ratio of EC50 (resistant viral strain)/EC50 (wild-type viral strain)
[6] = system: HIV-1 Y188L mutant strain; experiment: microbe, parasite or virus in culture; format: cell-based; conditions: for SI Y188L: CC50/EC50; for EC50: Human immunodeficiency virus 1, MT4, read-out: EC50 Y188L; for RF Y188L: ratio of EC50 (resistant viral strain)/EC50 (wild-type viral strain)
[7] = system: HIV-1 E138K mutant strain; experiment: microbe, parasite or virus in culture; format: cell-based; conditions: for SI E138K: CC50/EC50; for EC50: Human immunodeficiency virus 1, MT4, read-out: EC50 E138K; for RF E138K: ratio of EC50 (resistant viral strain)/EC50 (wild-type viral strain)
[8] = system: HIV-1 F227L + V106A double-mutant strain; experiment: microbe, parasite or virus in culture; format: cell-based; conditions: for SI F227L + V106A: CC50/EC50; for EC50: Human immunodeficiency virus 1, MT4, read-out: EC50 F227L + V106A; for RF F227L + V106A: ratio of EC50 (resistant viral strain)/EC50 (wild-type viral strain)
[9] = system: HIV-1 RES056 (K103N + Y181C) double-mutant strain; experiment: microbe, parasite or virus in culture; format: cell-based; conditions: for SI RES056: CC50/EC50; for EC50: Human immunodeficiency virus 1, MT4, read-out: EC50 RES056; for RF RES056: ratio of EC50 (resistant viral strain)/EC50 (wild-type viral strain)
[10] = biological target: WT HIV-1 RT (Human immunodeficiency virus type 1 group M subtype B, UniProt P03366); experiment: Recombinant HIV-1 RT inhibitory assay; format: biochemical
[11] = Cytotoxicity in mock-infected MT-4 cell cultures, MTT method; conditions: human, mock-infected MT-4 cells

Row | SMILES | EC50 [1] [µM] | SI IIIB [1] | EC50 [2] [µM] | SI ROD [2] | SI L100I [3] | EC50 [3] [µM] | RF L100I [3] | SI K103N [4] | EC50 [4] [µM] | RF K103N [4] | SI Y181C [5] | EC50 [5] [µM] | RF Y181C [5] | SI Y188L [6] | EC50 [6] [µM] | RF Y188L [6] | SI E138K [7] | EC50 [7] [µM] | RF E138K [7] | SI F227L + V106A [8] | also measured
1 | Cc1cc(-c2cccc(C#N)c2)cc(C)c1Oc1nc(NC2CCN(Cc3ccc(S(N)(=O)=O)cc3)CC2)nc2ccsc12 [Compound 27, 4-((4-((4-((3′-Cyano-3,5-dimethyl-[1,1′-biphenyl]-4-yl)oxy)thieno[3,2-d]pyrimidin-2-yl)amino)piperidin-1-yl)methyl)benzenesulfonamide] | 0.0133 ± 0.0026 | 1054 | 4.92 ± 2.25 | 3 | 569 | 0.0246 ± 0.00497 | 1.9 | 1639 | 0.00856 ± 0.00169 | 0.6 | 432 | 0.0324 ± 0.00407 | 2.4 | 256 | 0.0547 ± 0.00226 | 4.1 | 402 | 0.0348 ± 0.00928 | 2.6 | 285 | EC50 [8]: 0.0492 ± 0.00826 µM; RF F227L + V106A [8]: 3.7; SI RES056 [9]: 40; EC50 [9]: 0.347 ± 0.0759 µM; RF RES056 [9]: 26.1; IC50 [10]: 0.207 ± 0.006 µM; CC50 at 5 days [11]: 14 ± 8.28 µM
2 | Cc1cc(-c2cccc(C#N)c2)cc(C)c1Oc1nc(NC2CCN(Cc3ccc(C(N)=O)cc3)CC2)nc2ccsc12 [Compound 28, 4-((4-((4-((3′-Cyano-3,5-dimethyl-[1,1′-biphenyl]-4-yl)oxy)thieno[3,2-d]pyrimidin-2-yl)amino)piperidin-1-yl)methyl)benzamide] | 0.0234 ± 0.0169 | 178 | > 4.17 | <1 | 83 | 0.0502 ± 0.0103 | 2.1 | 208 | 0.02 ± 0.0012 | 0.9 | 81 | 0.0516 ± 0.00432 | 2.2 | 57 | 0.0734 ± 0.00516 | 3.1 | 99 | 0.0419 ± 0.00456 | 1.8 | 26 | EC50 [8]: 0.157 ± 0.0066 µM; RF F227L + V106A [8]: 6.7; SI RES056 [9]: 10; EC50 [9]: 0.402 ± 0.0419 µM; RF RES056 [9]: 17.2; IC50 [10]: 0.202 ± 0.02 µM; CC50 at 5 days [11]: 4.16 ± 1.75 µM
3 | Cc1cc(-c2ccc(N(C)C)cc2)cc(C)c1Oc1nc(NC2CCN(Cc3ccc(S(N)(=O)=O)cc3)CC2)nc2ccsc12 [Compound 29, 4-((4-((4-((4'-(Dimethylamino)-3,5-dimethyl-[1,1′-biphenyl]-4-yl)oxy)thieno[3,2-d]pyrimidin-2-yl)amino)piperidin-1-yl)methyl)benzenesulfonamide] | 0.0792 ± 0.0487 | 232 | > 18.4 | <1 | 74 | 0.247 ± 0.0045 | 3.1 | 189 | 0.0972 ± 0.00307 | 1.2 | 71 | 0.26 ± 0.0302 | 3.3 | 68 | 0.269 ± 0.03 | 3.4 | 100 | 0.183 ± 0.0194 | 2.3 | 131 | EC50 [8]: 0.14 ± 0.00131 µM; RF F227L + V106A [8]: 1.8; SI RES056 [9]: 11; EC50 [9]: 1.68 ± 0.388 µM; RF RES056 [9]: 21.2; IC50 [10]: 0.477 ± 0.009 µM; CC50 at 5 days [11]: 18.3 ± 4.5 µM
4 | Cc1cc(-c2ccc(N(C)C)cc2)cc(C)c1Oc1nc(NC2CCN(Cc3ccc(C(N)=O)cc3)CC2)nc2ccsc12 [Compound 30, 4-((4-((4-((4'-(Dimethylamino)-3,5-dimethyl-[1,1′-biphenyl]-4-yl)oxy)thieno[3,2-d]pyrimidin-2-yl)amino)piperidin-1-yl)methyl)benzamide] | 0.176 ± 0.0264 | 134 | > 23.5 | <1 | 21 | 1.11 ± 0.543 | 6.3 | 135 | 0.173 ± 0.0463 | 1.0 | 40 | 0.585 ± 0.0333 | 3.3 | 42 | 0.556 ± 0.0574 | 3.2 | 96 | 0.245 ± 0.173 | 1.4 | 19 | EC50 [8]: 1.25 ± 0.804 µM; RF F227L + V106A [8]: 7.1; SI RES056 [9]: < 1; EC50 [9]: > 23.5 µM; RF RES056 [9]: > 133; IC50 [10]: 0.473 ± 0.059 µM; CC50 at 5 days [11]: 23.5 ± 0.38 µM
5 | Cc1cc(-c2cccc(N(C)C)c2)cc(C)c1Oc1nc(NC2CCN(Cc3ccc(S(N)(=O)=O)cc3)CC2)nc2ccsc12 [Compound 31, 4-((4-((4-((3'-(Dimethylamino)-3,5-dimethyl-[1,1′-biphenyl]-4-yl)oxy)thieno[3,2-d]pyrimidin-2-yl)amino)piperidin-1-yl)methyl)benzenesulfonamide] | 0.882 ± 0.323 | 125 | > 110 | <1 | 46 | 2.4 ± 0.256 | 2.7 | 161 | 0.685 ± 0.00021 | 0.8 | 48 | 2.3 ± 0.413 | 2.6 | 55 | 1.99 ± 0.0465 | 2.3 | 112 | 0.979 ± 0.185 | 1.1 | 51 | EC50 [8]: 2.16 ± 0.298 µM; RF F227L + V106A [8]: 2.4; SI RES056 [9]: 4; EC50 [9]: 29.6 µM; RF RES056 [9]: 33.5; IC50 [10]: 1.68 ± 0.056 µM; CC50 at 5 days [11]: 110 ± 1.46 µM
6 | Cc1cc(-c2cccc(N(C)C)c2)cc(C)c1Oc1nc(NC2CCN(Cc3ccc(C(N)=O)cc3)CC2)nc2ccsc12 [Compound 32, 4-((4-((4-((3'-(Dimethylamino)-3,5-dimethyl-[1,1′-biphenyl]-4-yl)oxy)thieno[3,2-d]pyrimidin-2-yl)amino)piperidin-1-yl)methyl)benzamide] | 0.163 ± 0.0578 | 121 | 4.66 ± 0.824 | 4 | 17 | 1.14 ± 0.0992 | 6.9 | 93 | 0.212 ± 0.00734 | 1.3 | 32 | 0.626 ± 0.0392 | 3.8 | 36 | 0.552 ± 0.0456 | 3.4 | 100 | 0.198 ± 0.0342 | 1.2 | 25 | EC50 [8]: 0.783 ± 0.196 µM; RF F227L + V106A [8]: 4.8; SI RES056 [9]: 5; EC50 [9]: 4.3 ± 1.54 µM; RF RES056 [9]: 26.2; IC50 [10]: 0.271 ± 0.016 µM; CC50 at 5 days [11]: 19.8 ± 4.47 µM
